Key:
[1] = human
[2] = human, serum
[3] = human, serum; remark: listed apart in the source
[4] = human; remark: listed apart in the source
[5] = human; remark: listed apart in the source
[6] = human; remark: listed apart in the source
[7] = Presence of at least one case with successful reintroduction. [column 'REINT' in source]; settings: human
[8] = human; remark: listed apart in the source
[9] = human; remark: listed apart in the source
[10] = Highest frequency of moderate liver toxicity observed during clinical trials, expressed as a percentage. [column '% BIOL' in source]; settings: human
[11] = human, serum, 4383 h
[12] = Proposed mechanism(s) of liver damage. [column 'MEC' in source]; settings: human
[13] = human; remark: listed apart in the source
[14] = human; remark: listed apart in the source
[15] = human; remark: listed apart in the source
[16] = Times to onset, minimal and maximal, observed in the indexed observations. [column 'DELAI' in source]; settings: human
[17] = Comments (NB not yet translated). [column 'COMMENTAIRES' in source]; settings: human
[18] = Highest frequency of acute liver toxicity observed during clinical trials, expressed as a percentage. [column '% AIGUE' in source]; settings: human
[19] = human; remark: listed apart in the source
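Wherever Hepatotoxicity (association with vascular disease) is given: count of indexed literature references reporting vascular liver injury in humans, e.g. peliosis hepatitis, hepatic veno-occlusive disease or Budd-Chiari syndrome.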
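Wherever Hepatotoxicity (benign tumour) is given: value is a count of indexed literature references citing a benign tumour confirmed by histopathology.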
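Wherever Hepatotoxicity (choleostasis) is given: human cholestatic liver injury, shown by histopathology or by peak ALT or AST elevation over alkaline phosphatase ratio below 2, value counts indexed literature reports.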
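Wherever Hepatotoxicity (chronic liver disease) is given: chronic liver injury confirmed by histopathology or persistently raised serum aminotransferase activity beyond 6 months, value given as the count of indexed literature references.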
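Wherever Hepatotoxicity (cirrhosis) is given: value is a count of indexed literature references reporting cirrhosis confirmed by histopathology.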
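Wherever Hepatotoxicity (cytolytic) is given: human cytolytic liver injury, shown by histopathology or by a ratio above 5 of peak ALT or AST elevation to alkaline phosphatase elevation, value counts indexed references.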
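Wherever Hepatotoxicity (granulomatous hepatitis) is given: value is a count of indexed literature references reporting granulomatous liver disease confirmed by histopathology.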
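Wherever Hepatotoxicity (malignant tumour) is given: malignant tumour confirmed by histopathology, value gives the count of indexed literature references reporting it.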
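Wherever Hepatotoxicity (severe hepatitis) is given: human clinical data: severe hepatitis, meaning potentially life-threatening liver failure or clinically observed cases, the value counts how many indexed literature references report it.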
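Wherever Hepatotoxicity (steatosis) is given: steatosis confirmed by histopathology, value is the count of indexed references.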

| Molecule | Hepatotoxicity (steatosis) [1] | Hepatotoxicity (moderate) [2] | Hepatotoxicity (acute) [3] | Hepatotoxicity (cirrhosis) [4] | Hepatotoxicity (association with vascular disease) [5] | Hepatotoxicity (cytolytic) [6] | Hepatotoxicity (successful reintroduction) [7] | Hepatotoxicity (benign tumour) [8] | Hepatotoxicity (severe hepatitis) [9] | Hepatotoxicity (moderate) [10] [%] | Hepatotoxicity (chronic liver disease) [11] | Hepatotoxicity (mechanism) [12] | Hepatotoxicity (animal toxicity known) [13] | Hepatotoxicity (granulomatous hepatitis) [14] | Hepatotoxicity (malignant tumour) [15] | Hepatotoxicity (time to onset) [16] | Hepatotoxicity (comment) [17] | Hepatotoxicity (acute) [18] [%] | Hepatotoxicity (choleostasis) [19] | further results |
| --- | --- | --- | --- | --- | --- | --- | --- | --- | --- | --- | --- | --- | --- | --- | --- | --- | --- | --- | --- | --- |
| CC(C)C(=O)Nc1ccc([N+](=O)[O-])c(C(F)(F)F)c1 [FLUTAMIDE] | 0 | 21 | 31 | 0 | 0 | 21 | yes | 0 | 16 | 41.2 | 0 | Allergic, Reactive metabolite, Dose-dependant | yes | 0 | 0 | 3 days - 10 months | AC_ANTI-N | 10 | 7 | – |
| CC[C@]1(O)C[C@H]2CN(CCc3c([nH]c4ccccc34)[C@@](C(=O)OC)(c3cc4c(cc3OC)N(C=O)[C@H]3[C@@](O)(C(=O)OC)[C@H](OC(C)=O)[C@]5(CC)C=CCN6CC[C@]43[C@@H]65)C2)C1 [VINCRISTINE] | 0 | 3 | 5 | 0 | 7 | 4 | yes | 0 | 4 | 7.3 | 0 | Dose-dependant | yes | 0 | 1 | 3 days - 20 days | I/RADIOTHERAPIE REACTIVATION_HVB | 0 | 0 | – |
| C[C@H](CS)C(=O)N1CCC[C@H]1C(=O)O [CAPTOPRIL] | 1 | 5 | 26 | 1 | 0 | 7 | yes | 0 | – | – | 1 | Allergic | yes | 0 | 0 | 9 days - 26 months | PSEUDOCHOLANGITE RC/ENALAPRIL/LISINOPRIL | – | 16 | Hepatotoxicity (severe hepatitis) ([9]; Liver): 1; Hepatotoxicity (moderate) ([10]; Liver): 4%; Hepatotoxicity (acute) ([18]; Liver): 0.1% |
| CISPLATIN | 1 | 23 | 3 | 0 | 2 | 2 | yes | 0 | 1 | 93 | 0 | Dose-dependant | yes | 0 | 0 | 1 day - 2 weeks | CHOLANGITE/IAH | 7 | 1 | – |
| FC(F)(F)C(Cl)Br (stereo not drawn) [HALOTHANE] | 1 | 24 | 99 | 2 | 0 | 31 | yes | 0 | 35 | 33 | 3 | Allergic, Toxic Metabolite | yes | 2 | 0 | 1 day - 3 months | AC_ANTI-MFR1/-TFA RC/METHOXYFLURANE/ENFLURANE | 0 | 7 | – |
| CO[C@H]1/C=C/O[C@@]2(C)Oc3c(C)c(O)c4c(O)c(c(/C=N/N5CCN(C)CC5)c(O)c4c3C2=O)NC(=O)/C(C)=C\C=C\[C@H](C)[C@H](O)[C@@H](C)[C@@H](O)[C@@H](C)[C@H](OC(C)=O)[C@@H]1C [RIFAMPIN] | 0 | 22 | 38 | 0 | 0 | 14 | yes | 0 | 6 | 23 | 0 | Allergic, Dose-dependant | yes | 0 | 0 | 2 days - 14 months | AC_ANTI-N I/ISONIAZIDE/TROLEANDOMYCINE | 7.3 | 19 | – |
| CC[C@H]1OC(=O)[C@H](C)[C@@H](O[C@H]2C[C@@](C)(OC)[C@@H](O)[C@H](C)O2)[C@H](C)[C@@H](O[C@@H]2O[C@H](C)C[C@H](N(C)C)[C@H]2O)[C@](C)(OC)C[C@@H](C)C(=O)[C@H](C)[C@@H](O)[C@]1(C)O [CLARITHROMYCIN] | 0 | 47 | 13 | 0 | 0 | 9 | yes | 0 | 4 | 50.6 | 0 | Allergic, Dose-dependant | yes | 0 | 0 | 1 day - 10 weeks | AC_ANTI-N | 5.6 | 6 | – |

— ChEMBL document CHEMBL3137667, “[Drug-induced liver injury; fourteenth updated edition of the bibliographic database of liver injuries and related drugs]” (Gastroenterol Clin Biol, 2004)
